Experimental data reported in patent US7371766B2, “Curcumin analogs with anti-tumor and anti-angiogenic properties” (Emory University, priority 1999, dated 2008).
Like-named read-outs stand apart in the source and are kept apart here.

Assays:
[1] = test system: Vascular Endothelial Growth Factor (VEGF) production by human prostate cancer cell line DU-145; experiment: VEGF ELISA, DU-145; assay type: cell-based; details: for VEGF (% of DMSO): DMSO = 100%
[2] = test system: Vascular Endothelial Growth Factor (VEGF) production by human prostate cancer cell line PC-3; experiment: VEGF ELISA, PC-3; assay type: cell-based; details: for VEGF (% of DMSO): DMSO = 100%
RPMI-7951 human melanoma = experiment: Neutral Red Assay, cell viability, RPMI-7951; details: for viability at 20 µM / viability at 5 µM: Homo sapiens; for Cell Viability / Neutral Red Uptake, %: RPMI-7951; for Cell Viability: DMSO = 100; for Neutral Red Uptake, %: 72 hours
Description: (§1) RPMI-795 1, MDA-MB-231 and MDA-MB-435 cell lines were cultured in MEM-alpha medium (GIBCO-BRL, Long Island, N.Y.) containing 10% fetal bovine serum (RPMI-7951, MDA-MB-231) or 5% FBS (MDA-MB-435) at 37° C. and under 5% CO2/95% air. […] The cells were cultured in 48 well plates in all of the experiments described.
Neutral Red Assay was utilized to determine the effect of the compounds of the present invention on cell viability. Neutral Red was purchased from GIBCO-BRL (Long Island, N.Y.). Cells were plated at a concentration of 20,000 cells/well and cultured overnight. Compounds or vehicle (DMSO 0.1%) were then added and the plates were incubated for 72 hours. Supernatant from each well was either aspirated or collected and media containing Neutral Red (GIBCO-BRL, Long Island, N.Y.) at a concentration of 15 μl/ml was then added to each well. The plates were then incubated at 37° C. for 30 minutes. Next, the cells were washed with twice with PBS and alcoholic-HCl (0.5N—HCl/35% ethanol) was added to each well. The plates were then placed on a plate shaker until all residues were solubilized (pink color). The solubilized mixtures were then transferred to a 96 well plate and the absorbances were read on a micro-test plate reader at a wavelength of 570 nm.
Cell viability was determined by Neutral Red Assay.

[3] = test system: Vascular Endothelial Growth Factor (VEGF) production by human melanoma cell line RPMI-7951; experiment: VEGF ELISA, RPMI-7951; details: for activity at 20 µM / activity at 5 µM: Homo sapiens, RPMI-7951, 72 h, read-out: VEGF; for VEGF ELISA / VEGF: RPMI-7951; for VEGF ELISA: DMSO control 3713
Description: as §1
A VEGF enzyme-linked immunosorbent assay (ELISA) was utilized to determine the effect of the compounds of the present invention on VEGF production of a variety of human cancer cell lines. For the VEGF assay, cells were plated at a concentration of 80,000 cells/well and cultured overnight. Compounds or vehicle (DMSO 0.1%) were then added and the plates were incubated for 72 hours. Supernatant was then collected from each well and frozen in a −80° C. freezer until needed. Cell viability was determined by Neutral Red Assay. VEGF ELISA Kit (R & D, Minneapolis, Minn.) was used to determine the amount of VEGF in the culture supernatants. The ELISA was carried out according to the manufacturer's procedure.

[4] = test system: Tissue Factor (TF) production by human melanoma cell line RPMI-7951; experiment: TF ELISA, RPMI-7951; assay type: cell-based
Description: IMUBIND Tissue Factor ELISA Kit (American Diagnostica Inc, Greenwich, Conn.) was used to determine TF concentration in each sample. The ELISA was carried out according to manufacturer's procedure.

[5] = 20 μM, mean of triplicate and S.D., DMSO 18760 ± 2633
[6] = Table 4, 20 μM, mean of triplicate and S.D.
[7] = 20 μM, mean of triplicate and S.D., DMSO 2103 ± 100
[8] = RPMI-7951, 72 h, read-out: Neutral Red Uptake, %
[9] = RPMI-7951, read-out: Cell Viability
[10] = 5 μM, DMSO control 4197 (EF-25: 1045)
[11] = Table 5, 20 μM, DMSO control 7054

## COc1ccc(CCC(O)CCc2ccc(OC)c(OC)c2)cc1OC [B]
[1]; 20 μM
  VEGF (% of DMSO): (82%)
[1]; [5]
  VEGF: 15321 ± 5607 pg/mL
[1]; Table 4, 20 μM, DMSO = 100
  VEGF: 82%
[1]; [6]
  VEGF: 15321 ± 5607 pg/mL
[2]; 20 μM
  VEGF (% of DMSO): (99%)
[2]; [7]
  VEGF: 2168 ± 279 pg/mL
[2]; Table 4, 20 μM, DMSO = 100
  VEGF: 103%
[2]; [6]
  VEGF: 2168 ± 279 pg/mL

## O=C(C=Cc1ccc(F)c(F)c1)C=Cc1ccc(F)c(F)c1 [EF10, 1,5-Bis(3,4-difluorophenyl)penta-1,4-dien-3-one]
RPMI-7951 human melanoma; [8]
  viability at 20 µM: 8%
RPMI-7951 human melanoma; [9]
  viability at 20 µM: 54%
[3]
  activity at 20 µM: 5%
[3]; 20 μM
  VEGF ELISA: 257 pg/ml/well
[3]; 20 μM, DMSO control 4197
  VEGF: 217 pg/mL

## COc1ccccc1C1CC(=O)CC(c2ccccc2OC)O1 (stereo not drawn) [BA-8]
[1]; 20 μM
  VEGF (% of DMSO): (218%)
[1]; [5]
  VEGF: 40883 ± 6639 pg/mL
[1]; Table 4, 20 μM, DMSO = 100
  VEGF: 218%
[1]; [6]
  VEGF: 40883 ± 6639 pg/mL
[2]; 20 μM
  VEGF (% of DMSO): (78%)
[2]; [7]
  VEGF: 1648 ± 229 pg/mL
[2]; Table 4, 20 μM, DMSO = 100
  VEGF: 78%
[2]; [6]
  VEGF: 1648 ± 229 pg/mL

## COc1cc(CC2CCCC(Cc3ccc(O)c(OC)c3)C2O)ccc1O (stereo not drawn) [Compound A231L]
RPMI-7951 human melanoma; 20 μM
  Cell Viability: 77%
[3]; 20 μM, DMSO = 100
  VEGF: 25%
[1]; Table 4, 20 μM, DMSO = 100
  VEGF: 149%
[1]; [6]
  VEGF: 27927 ± 4466 pg/mL
[2]; Table 4, 20 μM, DMSO = 100
  VEGF: 80%
[2]; [6]
  VEGF: 1687 ± 250 pg/mL

## COc1ccc(CCC(O)CCc2ccc(OC)c(OC)c2)cc1OC [MD279L, 1,5-Bis(3,4-dimethoxyphenyl)penta-3-ol]
RPMI-7951 human melanoma; 5 μM
  Neutral Red Uptake, %: 100 % of control
  Cell Viability: 110%
RPMI-7951 human melanoma; 20 μM
  Neutral Red Uptake, %: 100 % of control
  Cell Viability: 109%
[3]; 5 μM, DMSO = 100
  VEGF: 22%
[3]; 5 μM
  VEGF ELISA: 2235 pg/ml/well
[3]; [10]
  VEGF: 904 pg/mL
[3]; 20 μM, DMSO = 100
  VEGF: 0%
[3]; 20 μM
  VEGF ELISA: 1603 pg/ml/well
[3]; 20 μM, DMSO control 4197
  VEGF: 0 pg/mL
[4]; 5 μM, DMSO = 100
  TF: 82%
[4]; 5 μM, DMSO control 7054
  TF ELISA: 5791 pg/ml/well
[4]; 20 μM, DMSO = 100
  TF: 83%
[4]; 20 μM, DMSO control 7054
  TF ELISA: 5858 pg/ml/well
[4]; Table 5, 5 μM, DMSO control 7054
  TF: 5791 pg/mL
[4]; [11]
  TF: 5858 pg/mL

## O=S(=O)(/C=C/c1ccccc1)/C=C/c1ccccc1 [EF12, 3,5-Bisbenzylidenesulfone]
RPMI-7951 human melanoma; 20 μM
  Cell Viability: 92%
[3]; 20 μM, DMSO = 100
  VEGF: 70%

## COc1ccc(CNC(=O)NCc2ccc(OC)c(OC)c2)cc1OC [Compound A277b]
[1]; Table 4, 20 μM, DMSO = 100
  VEGF: 145%
[1]; [6]
  VEGF: 27124 ± 1346 pg/mL
[2]; Table 4, 20 μM, DMSO = 100
  VEGF: 89%
[2]; [6]
  VEGF: 1868 ± 38 pg/mL

## O=C(NCc1ccccc1)NCc1ccccc1 [Compound A271a]
[1]; 20 μM
  VEGF (% of DMSO): (129%)
[1]; [5]
  VEGF: 24190 ± 2160 pg/mL
[1]; Table 4, 20 μM, DMSO = 100
  VEGF: 129%
[1]; [6]
  VEGF: 24190 ± 2160 pg/mL
[2]; 20 μM
  VEGF (% of DMSO): (57%)
[2]; [7]
  VEGF: 1196 ± 438 pg/mL
[2]; Table 4, 20 μM, DMSO = 100
  VEGF: 57%
[2]; [6]
  VEGF: 1196 ± 438 pg/mL

## COc1ccc(C=CC(=O)c2ccccc2)cc1OC [BA-3]
RPMI-7951 human melanoma; 5 μM
  Cell Viability: 93%
RPMI-7951 human melanoma; 20 μM
  Cell Viability: 102%
[3]; 5 μM, DMSO = 100
  VEGF: 116%
[3]; [10]
  VEGF: 4860 pg/mL
[3]; 20 μM, DMSO = 100
  VEGF: 48%
[3]; 20 μM, DMSO control 4197
  VEGF: 2035 pg/mL
[4]; 20 μM, DMSO = 100
  TF: 30%
[4]; [11]
  TF: 2088 pg/mL

## COc1ccc(C=CC(O)CCc2ccc(OC)c(OC)c2)cc1OC (stereo not drawn) [Compound A239]
RPMI-7951 human melanoma; 20 μM
  Cell Viability: 86%
[3]; 20 μM, DMSO = 100
  VEGF: 40%
[1]; Table 4, 20 μM, DMSO = 100
  VEGF: 145%
[1]; [6]
  VEGF: 27229 ± 2148 pg/mL
[2]; Table 4, 20 μM, DMSO = 100
  VEGF: 80%
[2]; [6]
  VEGF: 1678 ± 293 pg/mL

## COc1ccc(CCC(=O)CCc2ccc(OC)c(OC)c2)cc1OC [A]
[1]; 20 μM
  VEGF (% of DMSO): (142%)
[1]; [5]
  VEGF: 26565 ± 9818 pg/mL
[1]; Table 4, 20 μM, DMSO = 100
  VEGF: 142%
[1]; [6]
  VEGF: 26565 ± 9818 pg/mL
[2]; 20 μM
  VEGF (% of DMSO): (82%)
[2]; [7]
  VEGF: 1729 ± 59 pg/mL
[2]; Table 4, 20 μM, DMSO = 100
  VEGF: 82%
[2]; [6]
  VEGF: 1729 ± 59 pg/mL

## COc1cc(CCC(=O)CC(=O)CCc2ccc(O)c(OC)c2)ccc1O [Compound A232]
RPMI-7951 human melanoma; 20 μM
  Cell Viability: 78%
[3]; 20 μM, DMSO = 100
  VEGF: 40%
[1]; Table 4, 20 μM, DMSO = 100
  VEGF: 135%
[1]; [6]
  VEGF: 25308 ± 4722 pg/mL
[2]; Table 4, 20 μM, DMSO = 100
  VEGF: 93%
[2]; [6]
  VEGF: 1955 ± 437 pg/mL

## O=S(=O)(NCc1ccccc1)NCc1ccccc1 [Compound A272]
[1]; Table 4, 20 μM, DMSO = 100
  VEGF: 129%
[1]; [6]
  VEGF: 24155 ± 4635 pg/mL
[2]; Table 4, 20 μM, DMSO = 100
  VEGF: 89%
[2]; [6]
  VEGF: 1864 ± 339 pg/mL

## CON=C(/C=C/c1ccccc1O)/C=C/c1ccccc1O [EF6, N-(Methoxy)-1,5-bis(2-hydroxyphenyl)penta-1,4-dien-3-imine]
RPMI-7951 human melanoma; [9]
  viability at 20 µM: 72%
[3]
  activity at 20 µM: 45%

## COc1ccc(CC2CCCC(Cc3ccc(OC)c(OC)c3)C2=O)cc1OC (stereo not drawn) [C]
[1]; 20 μM
  VEGF (% of DMSO): (110%)
[1]; [5]
  VEGF: 20559 ± 9224 pg/mL
[1]; Table 4, 20 μM, DMSO = 100
  VEGF: 110%
[1]; [6]
  VEGF: 20559 ± 9224 pg/mL
[2]; 20 μM
  VEGF (% of DMSO): (82%)
[2]; [7]
  VEGF: 1734 ± 397 pg/mL
[2]; Table 4, 20 μM, DMSO = 100
  VEGF: 82%
[2]; [6]
  VEGF: 1734 ± 397 pg/mL

## CN(C)/N=N/c1[nH]cnc1C(N)=O [Decabazine, Decarbazine, reference compound]
RPMI-7951 human melanoma; [8]
  viability at 5 µM: 100%
  viability at 20 µM: 100%
RPMI-7951 human melanoma; [9]
  viability at 5 µM: 91%
  viability at 20 µM: 99%
[3]
  activity at 5 µM: 28%
  activity at 20 µM: 31%
[3]; 5 μM
  VEGF ELISA: 1136 pg/ml/well
[3]; [10]
  VEGF: 1171 pg/mL
[3]; 20 μM
  VEGF ELISA: 1531 pg/ml/well
[3]; 20 μM, DMSO control 4197
  VEGF: 1293 pg/mL

## COc1ccc(CCC(=O)CCc2ccc(OC)cc2)cc1 [BA-1]
[4]; 20 μM, DMSO = 100
  TF: 95%
[4]; [11]
  TF: 6669 pg/mL

## [O-][S+](/C=C/c1ccccc1)/C=C/c1ccccc1 [EF13, E,E-3,5-Bisbenzylidenesulfoxide]
RPMI-7951 human melanoma; 20 μM
  Cell Viability: 92%
[3]; 20 μM, DMSO = 100
  VEGF: 53%

## COc1ccc(CNS(=O)(=O)NCc2ccc(OC)c(OC)c2)cc1OC [Compound A277a]
[1]; Table 4, 20 μM, DMSO = 100
  VEGF: 146%
[1]; [6]
  VEGF: 27403 ± 3143 pg/mL
[2]; Table 4, 20 μM, DMSO = 100
  VEGF: 95%
[2]; [6]
  VEGF: 2007 ± 30 pg/mL

## O=C1CCC(N2C(=O)c3ccccc3C2=O)C(=O)N1 (stereo not drawn) [Thalidomide, reference compound]
RPMI-7951 human melanoma; [8]
  viability at 5 µM: 100%
  viability at 20 µM: 100%
RPMI-7951 human melanoma; [9]
  viability at 5 µM: 105%
  viability at 20 µM: 97%
[3]
  activity at 5 µM: 44%
  activity at 20 µM: 57%
[3]; 5 μM
  VEGF ELISA: 1810 pg/ml/well
[3]; [10]
  VEGF: 1865 pg/mL
[3]; 20 μM
  VEGF ELISA: 2827 pg/ml/well
[3]; 20 μM, DMSO control 4197
  VEGF: 2387 pg/mL

## [O-][S+](/C=C\c1ccccc1)/C=C/c1ccccc1 (racemic) [EF14, E,Z3,5-Bisbenzylidenesulfoxide]
RPMI-7951 human melanoma; 20 μM
  Cell Viability: 86%
[3]; 20 μM, DMSO = 100
  VEGF: 36%

## O=C(C=Cc1ccccc1F)C=Cc1ccccc1F [EF8, 1,5-Bis(2-fluorophenyl)penta-1,4-dien-3-one]
RPMI-7951 human melanoma; [8]
  viability at 5 µM: 97%
  viability at 20 µM: 8%
RPMI-7951 human melanoma; [9]
  viability at 5 µM: 94%
  viability at 20 µM: 54%
[3]
  activity at 5 µM: 54%
  activity at 20 µM: 1%
[3]; 5 μM
  VEGF ELISA: 2208 pg/ml/well
[3]; [10]
  VEGF: 2276 pg/mL
[3]; 20 μM
  VEGF ELISA: 319 pg/ml/well
[3]; 20 μM, DMSO control 4197
  VEGF: 35 pg/mL

## Oc1ccccc1CCC(O)CCc1ccccc1O [EF32, 1,5-Bis(2-hydroxyphenyl)-pentan-3-ol]
[4]; 20 μM, DMSO = 100
  TF: 123%
[4]; [11]
  TF: 8654 pg/mL
